Assay results reported in patent US9708314B2, “Heterocyclic amide compound” (NISSAN CHEMICAL INDUSTRIES, LTD., priority 2013, dated 2017).

Key:
Type in all cases: in vivo
[1] = test system: Beta vulgaris ssp. vulgaris; test: Test Example 4: effect on crop by application to foliage (diluvial soil, plastic box); conditions: application to foliage, application herbicide amount 320 g/ha
How it was run: (§1)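 Greenhouse plants (25° C. to 30° C., 14 d, diluvial soil) receive a foliar spray of water-diluted emulsifiable formulation at defined g/ha. Grading after 3 weeks uses a six-step herbicidal-ratio scale, with 4 covering 70% to <90% and 1 covering 5% to <20%.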

Glycine max = test: as above; conditions: application to foliage, application herbicide amount 320 g/ha
How it was run: as §1

[2] = test system: directly sowed Oryza sativa; test: as above; conditions: application to foliage, application herbicide amount 320 g/ha
How it was run: as §1

Triticum aestivum = test: as above; conditions: application to foliage, application herbicide amount 320 g/ha
How it was run: as §1

Brassica campestris L. = test: as above; conditions: application to foliage, application herbicide amount 320 g/ha
How it was run: as §1

Zea mays = test: as above; conditions: application to foliage, application herbicide amount 320 g/ha
How it was run: as §1

Digitaria ciliaris = test: Test Example 4: herbicidal effect by application to foliage (diluvial soil, plastic box); conditions: application to foliage, application herbicide amount 320 g/ha
How it was run: as §1

Galium spurium = test: as above; conditions: application to foliage, application herbicide amount 320 g/ha
How it was run: as §1

Alopecurus myosuroides = test: as above; conditions: application to foliage, application herbicide amount 320 g/ha
How it was run: as §1

Chenopodium album = test: as above; conditions: application to foliage, application herbicide amount 320 g/ha
How it was run: as §1

Setaria viridis = test: as above; conditions: application to foliage, application herbicide amount 320 g/ha
How it was run: as §1

Avena fatua = test: as above; conditions: application to foliage, application herbicide amount 320 g/ha
How it was run: as §1

Abutilon theophrasti = test: as above; conditions: application to foliage, application herbicide amount 320 g/ha
How it was run: as §1

Lolium multiflorum Lam. = test: as above; conditions: application to foliage, application herbicide amount 320 g/ha
How it was run: as §1

[3] = test system: Echinochloa crus-galli var. crus-galli; test: as above; conditions: application to foliage, application herbicide amount 320 g/ha
How it was run: as §1

Apera spica-venti. = test: as above; conditions: application to foliage, application herbicide amount 320 g/ha
How it was run: as §1

Leptochloa chinensis = test: Test Example 3: herbicidal effect by application to foliage (Wagner pot, water depth 0.1-0.5 cm); conditions: Nineteenth Table; application to foliage; application herbicide amount 320 g/ha
How it was run: (§2)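 Rice-field weeds and directly sown rice were grown 14 days in flooded alluvial soil (water depth 0.1–0.5 cm) at 25–30 °C in a greenhouse. An emulsion formulation diluted to the stated g/ha rate was sprayed onto stems and leaves. Effects were scored on a 0–5 scale (herbicidal ratio bands) three weeks after treatment.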

[4] = test system: Echinochloa crus-galli var. crus-galli; test: as above; conditions: Nineteenth Table; application to foliage; application herbicide amount 320 g/ha
How it was run: as §2

Structure (SMILES)	f: effect on crop, Beta vulgaris ssp. vulgaris [1]	d: effect on crop, Glycine max (Glycine max)	b: effect on crop, directly sowed Oryza sativa [2]	e: effect on crop, Triticum aestivum (Triticum aestivum)	g: effect on crop, Brassica campestris L. (Brassica campestris L.)	c: effect on crop, Zea mays (Zea mays)	F: herbicidal effect on Digitaria ciliaris (Digitaria ciliaris)	Q: herbicidal effect on Galium spurium (Galium spurium)	J: herbicidal effect on Alopecurus myosuroides (Alopecurus myosuroides)	O: herbicidal effect on Chenopodium album (Chenopodium album)	G: herbicidal effect on Setaria viridis (Setaria viridis)	I: herbicidal effect on Avena fatua (Avena fatua)	M: herbicidal effect on Abutilon theophrasti (Abutilon theophrasti)	K: herbicidal effect on Lolium multiflorum Lam. (Lolium multiflorum Lam.)	H: herbicidal effect on Echinochloa crus-galli var. crus-galli [3]	L: herbicidal effect on Apera spica-venti. (Apera spica-venti.)	D (herbicidal effect grade) (Leptochloa chinensis)	H (herbicidal effect grade) [4]
C=CCN(C)c1nnc2c(C(=O)Nc3nnc(C)o3)ccc(C(F)(F)F)n12 [1-166]	5 (Herbicidal ratio of 90% or more (almost completely withered))	4 (Herbicidal ratio of 70% or more and less than 90%)	0 (Herbicidal ratio of 5% or less (almost no effect))	0 (Herbicidal ratio of 5% or less (almost no effect))	4 (Herbicidal ratio of 70% or more and less than 90%)	0 (Herbicidal ratio of 5% or less (almost no effect))	5 (Herbicidal ratio of 90% or more (almost completely withered))	1 (Herbicidal ratio of 5% or more and less than 20%)	0 (Herbicidal ratio of 5% or less (almost no effect))	5 (Herbicidal ratio of 90% or more (almost completely withered))	4 (Herbicidal ratio of 70% or more and less than 90%)	1 (Herbicidal ratio of 5% or more and less than 20%)	3 (Herbicidal ratio of 40% or more and less than 70%)	1 (Herbicidal ratio of 5% or more and less than 20%)	5 (Herbicidal ratio of 90% or more (almost completely withered))	1 (Herbicidal ratio of 5% or more and less than 20%)	3 (Herbicidal ratio of 40% or more and less than 70%)	4 (Herbicidal ratio of 70% or more and less than 90%)
C#CCN(C)c1nnc2c(C(=O)Nc3nnco3)ccc(C(F)(F)F)n12 [1-163]	4 (Herbicidal ratio of 70% or more and less than 90%)	4 (Herbicidal ratio of 70% or more and less than 90%)	0 (Herbicidal ratio of 5% or less (almost no effect))	1 (Herbicidal ratio of 5% or more and less than 20%)	3 (Herbicidal ratio of 40% or more and less than 70%)	0 (Herbicidal ratio of 5% or less (almost no effect))	4 (Herbicidal ratio of 70% or more and less than 90%)	3 (Herbicidal ratio of 40% or more and less than 70%)	1 (Herbicidal ratio of 5% or more and less than 20%)	5 (Herbicidal ratio of 90% or more (almost completely withered))	3 (Herbicidal ratio of 40% or more and less than 70%)	2 (Herbicidal ratio of 20% or more and less than 40%)	4 (Herbicidal ratio of 70% or more and less than 90%)	1 (Herbicidal ratio of 5% or more and less than 20%)	5 (Herbicidal ratio of 90% or more (almost completely withered))	1 (Herbicidal ratio of 5% or more and less than 20%)	5 (Herbicidal ratio of 90% or more (almost completely withered))	5 (Herbicidal ratio of 90% or more (almost completely withered))
C=CCc1nnc2c(C(=O)Nc3nnco3)ccc(C(F)(F)F)n12 [1-158]	5 (Herbicidal ratio of 90% or more (almost completely withered))	4 (Herbicidal ratio of 70% or more and less than 90%)	0 (Herbicidal ratio of 5% or less (almost no effect))	2 (Herbicidal ratio of 20% or more and less than 40%)	3 (Herbicidal ratio of 40% or more and less than 70%)	0 (Herbicidal ratio of 5% or less (almost no effect))	5 (Herbicidal ratio of 90% or more (almost completely withered))	3 (Herbicidal ratio of 40% or more and less than 70%)	1 (Herbicidal ratio of 5% or more and less than 20%)	5 (Herbicidal ratio of 90% or more (almost completely withered))	4 (Herbicidal ratio of 70% or more and less than 90%)	3 (Herbicidal ratio of 40% or more and less than 70%)	4 (Herbicidal ratio of 70% or more and less than 90%)	2 (Herbicidal ratio of 20% or more and less than 40%)	5 (Herbicidal ratio of 90% or more (almost completely withered))	3 (Herbicidal ratio of 40% or more and less than 70%)	4 (Herbicidal ratio of 70% or more and less than 90%)	5 (Herbicidal ratio of 90% or more (almost completely withered))
COCCc1nnc2c(C(=O)Nc3nnc(C)o3)ccc(C(F)(F)F)n12 [1-173]	5 (Herbicidal ratio of 90% or more (almost completely withered))	4 (Herbicidal ratio of 70% or more and less than 90%)	3 (Herbicidal ratio of 40% or more and less than 70%)	1 (Herbicidal ratio of 5% or more and less than 20%)	4 (Herbicidal ratio of 70% or more and less than 90%)	0 (Herbicidal ratio of 5% or less (almost no effect))	4 (Herbicidal ratio of 70% or more and less than 90%)	4 (Herbicidal ratio of 70% or more and less than 90%)	1 (Herbicidal ratio of 5% or more and less than 20%)	5 (Herbicidal ratio of 90% or more (almost completely withered))	3 (Herbicidal ratio of 40% or more and less than 70%)	2 (Herbicidal ratio of 20% or more and less than 40%)	5 (Herbicidal ratio of 90% or more (almost completely withered))	1 (Herbicidal ratio of 5% or more and less than 20%)	5 (Herbicidal ratio of 90% or more (almost completely withered))	1 (Herbicidal ratio of 5% or more and less than 20%)	4 (Herbicidal ratio of 70% or more and less than 90%)	5 (Herbicidal ratio of 90% or more (almost completely withered))
